These results are taken from patent US9796709B2, “5-hydroxy-4-(trifluoromethyl)pyrazolopyridine derivative” (Daiichi Sankyo Company, Limited, priority 2013, dated 2017).

The target of this test is T1, LCAT (Homo sapiens, UniProt P04180).
T1 construct: The obtained fraction was dialyzed against phosphate-buffered saline (pH 7.4) and used as an enzyme source and an acceptor for LCAT; from tissue; host or cells: HDL3 fraction (1.125 < specific gravity < 1.210 g/mL) of plasma from a healthy person
T1 sequence (P04180 25-440): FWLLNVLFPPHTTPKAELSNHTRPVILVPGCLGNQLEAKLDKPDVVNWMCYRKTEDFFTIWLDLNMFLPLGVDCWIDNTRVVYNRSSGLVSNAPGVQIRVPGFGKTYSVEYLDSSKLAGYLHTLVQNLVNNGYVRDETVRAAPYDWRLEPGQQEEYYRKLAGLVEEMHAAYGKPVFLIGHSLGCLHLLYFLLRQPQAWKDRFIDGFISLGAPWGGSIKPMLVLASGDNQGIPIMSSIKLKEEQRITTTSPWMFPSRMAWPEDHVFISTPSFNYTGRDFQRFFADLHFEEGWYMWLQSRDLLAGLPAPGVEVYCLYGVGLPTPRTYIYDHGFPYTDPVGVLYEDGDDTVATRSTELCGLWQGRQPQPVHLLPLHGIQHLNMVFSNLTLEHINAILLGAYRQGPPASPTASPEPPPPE
Briefly: LCAT activity measurement (in vitro), [14C]cholesterol esterification with HDL3 fraction. The test is classed as biochemical. Particulars: HDL3 fraction from plasma of a healthy person as enzyme source and acceptor; 37° C., approximately 16 hours; relative to sample without test drug; read-out: EC50 of LCAT activation. As for the experimental part:
A fraction composed of HDL3 (1.125 <specific gravity <1.210 g/mL) was obtained from the plasma of a healthy person by density gradient centrifugation. The obtained fraction was dialyzed against phosphate-buffered saline (pH 7.4) and used as an enzyme source and an acceptor for LCAT. Each test drug was prepared by dissolution in dimethyl sulfoxide. [^14C]Cholesterol containing DTNB (Ellman's reagent, final concentration: 0.5 mM), mercaptoethanol (final concentration: 12.5 mM), and 0.6% bovine serum albumin was added to phosphate-buffered saline (pH 7.4) containing 1 mg/mL HDL3, and the test drug was further added thereto at varying concentrations to adjust the whole amount to 80 μL. This mixture was incubated at 37° C. for approximately 16 hours. Then, a mixed solution of hexane and isopropanol (mixing ratio=3:2) was added thereto to stop the reaction. After stirring, the hexane layer was collected, and this layer was evaporated to dryness. A chloroform solution (concentration: 10 mg/mL) was added thereto, and the mixture was spotted onto a thin-layer silica gel plate and developed using a mixed solution of hexane, diethyl ether, and ethyl acetate (mixing ratio=85:15:2). The radioactivity of a portion corresponding to cholesterol oleate was measured using an imaging analyzer BAS-2500 (manufactured by Fujifilm Corp.). A sample non-supplemented with the test drug was similarly treated and assayed. The EC50 value of LCAT activation was calculated according to the expression given below relative to LCAT activity in the sample non-supplemented with the test drug.
[formula] • wherein X represents the logarithm of the concentration of the test drug; • Y represents the responsiveness (LCAT activity) of the test drug; • Top represents the maximum value (maximum plateau); • Bottom represents the minimum value (minimum plateau); and • EC50 represents the 50% effective concentration.

Regarding `O=C1Nc2[nH]nc(C3CCN(c4cc(C(=O)N5CCCCC5)c(C(F)(F)F)cn4)CC3)c2[C@@H](C(F)(F)F)[C@H]1O` (racemic) [Example 33, cis-5-Hydroxy-3-{1-[4-(piperidin-1-ylcarbonyl)-5-(trifluoromethyl)pyridin-2-yl]piperidin-4-yl}-4-(trifluoromethyl)-1,4,5,7-tetrahydro-6H-pyrazolo[3,4-b]pyridin-6-one], the concentration for a half-maximal effect (EC50) was 57 nM.

Turning to `O=C1Nc2[nH]nc(C3CCN(c4ccc(C(F)(F)F)nc4)CC3)c2[C@@H](C(F)(F)F)[C@H]1O` (single isomer, unassigned) [Example 23, (+)-cis-5-Hydroxy-4-(trifluoromethyl)-3-{1-[6-(trifluoromethyl)pyridin-3-yl]piperidin-4-yl}-1,4,5,7-tetrahydro-6H-pyrazolo[3,4-b]pyridin-6-one], the concentration for a half-maximal effect (EC50) came out at 8 nM.

For the molecule `O=C1Nc2[nH]nc(C3CCN(c4cncc(C(F)(F)F)c4)CC3)c2[C@@H](C(F)(F)F)[C@H]1O` (single isomer, unassigned) [Example 38, (+)-cis-5-Hydroxy-4-(trifluoromethyl)-3-{1-[5-(trifluoromethyl)pyridin-3-yl]piperidin-4-yl}-1,4,5,7-tetrahydro-6H-pyrazolo[3,4-b]pyridin-6-one], the EC50 turned out to be 24 nM.

As for `O=C(OCc1ccccc1)c1cc(N2CCC(c3n[nH]c4c3[C@@H](C(F)(F)F)[C@@H](O)C(=O)N4)CC2)ncc1C(F)(F)F` (single isomer, unassigned) [Example 32, Benzyl (+)-2-{4-[cis-5-hydroxy-6-oxo-4-(trifluoromethyl)-4,5,6,7-tetrahydro-1H-pyrazolo[3,4-b]pyridin-3-yl]piperidin-1-yl}-5-(trifluoromethyl)pyridine-4-carboxylate], the EC50 came to 7 nM.

Regarding `O=C1Nc2[nH]nc(C3CCN(c4nnc(C(F)(F)F)s4)CC3)c2[C@@H](C(F)(F)F)[C@H]1O` (single isomer, unassigned) [Example 26, (+)-cis-5-Hydroxy-4-(trifluoromethyl)-3-{1-[5-(trifluoromethyl)-1,3,4-thiadiazol-2-yl]piperidin-4-yl}-1,4,5,7-tetrahydro-6H-pyrazolo[3,4-b]pyridin-6-one], the EC50 is 65 nM.

`O=C1Nc2[nH]nc(C3CCN(c4ccc(C(F)(F)F)nn4)CC3)c2[C@@H](C(F)(F)F)[C@H]1O` (single isomer, unassigned) [Example 19, (+)-cis-5-Hydroxy-4-(trifluoromethyl)-3-{1-[6-(trifluoromethyl)pyridazin-3-yl]piperidin-4-yl}-1,4,5,7-tetrahydro-6H-pyrazolo[3,4-b]pyridin-6-one]: the concentration giving a half-maximal response (EC50) was 35 nM.

On to `O=C1Nc2[nH]nc(C3CCN(c4cnc(C(F)(F)F)cn4)CC3)c2[C@@H](C(F)(F)F)[C@H]1O` (racemic) [Example 11, cis-5-Hydroxy-4-(trifluoromethyl)-3-{l-[5-(trifluoromethyl)pyrazin-2-yl]piperidin-4-yl}-1,4,5,7-tetrahydro-6H-pyrazolo[3,4-b]pyridin-6-one], for which the concentration giving a half-maximal response (EC50) stood at 29 nM.

Turning to `N#Cc1ncc(N2CCC(c3n[nH]c4c3[C@@H](C(F)(F)F)[C@@H](O)C(=O)N4)CC2)cc1F` (single isomer, unassigned) [Example 24, (+)-3-Fluoro-5-{4-[cis-5-hydroxy-6-oxo-4-(trifluoromethyl)-4,5,6,7-tetrahydro-1H-pyrazolo[3,4-b]pyridin-3-yl]piperidin-1-yl}pyridine-2-carbonitrile], the half-maximal effective concentration (EC50) came out at 30 nM.

Consider `O=C1Nc2[nH]nc(C3CCN(c4cnc(C(F)(F)F)cn4)CC3)c2[C@@H](C(F)(F)F)[C@@H]1O` (racemic) [Example 10, trans-5-Hydroxy-4-(trifluoromethyl)-3-{1-[5-(trifluoromethyl)pyrazin-2-yl]piperidin-4-yl}-1,4,5,7-tetrahydro-6H-pyrazolo[3,4-b]pyridin-6-one], for which the 50% effective concentration (EC50) turned out to be 340 nM.

Consider `O=C1Nc2[nH]nc(C3CCN(c4cccc(C(F)(F)F)n4)CC3)c2[C@@H](C(F)(F)F)[C@H]1O` (racemic) [Example 16, cis-5-Hydroxy-4-(trifluoromethyl)-3-{1-[6-(trifluoromethyl)pyridin-2-yl]piperidin-4-yl}-1,4,5,7-tetrahydro-6H-pyrazolo[3,4-b]pyridin-6-one], for which the EC50 came to 62 nM.

On to `N#Cc1cnc(N2CCC(c3n[nH]c4c3[C@@H](C(F)(F)F)[C@@H](O)C(=O)N4)CC2)cn1` (single isomer, unassigned) [Example 28, (+)-5-{4-[cis-5-Hydroxy-6-oxo-4-(trifluoromethyl)-4,5,6,7-tetrahydro-1H-pyrazolo[3,4-b]pyridin-3-yl]piperidin-1-yl}pyrazine-2-carbonitrile], for which the concentration giving a half-maximal response (EC50) came to 160 nM.

As for `Cc1cc(N2CCC(c3n[nH]c4c3[C@@H](C(F)(F)F)[C@@H](O)C(=O)N4)CC2)cnc1C#N` (single isomer, unassigned) [Example 27, (+)-5-{4-[cis-5-Hydroxy-6-oxo-4-(trifluoromethyl)-4,5,6,7-tetrahydro-1H-pyrazolo[3,4-b]pyridin-3-yl]piperidin-1-yl}-3-methylpyridine-2-carbonitrile], the EC50 worked out at 37 nM.

With `O=C1Nc2[nH]nc(C3CCN(c4cnc(C5CC5)nc4)CC3)c2[C@@H](C(F)(F)F)[C@H]1O` (single isomer, unassigned) [Example 40, cis-3-[1-(2-cyclopropylpyrimidin-5-yl)piperidin-4-yl]-5-hydroxy-4-(trifluoromethyl)-1,4,5,7-tetrahydro-6H-pyrazolo[3,4-b]pyridin-6-one], the EC50 was determined as 70 nM.

Consider `O=C1Nc2[nH]nc(C3CCN(c4nc(C(F)(F)F)cs4)CC3)c2[C@@H](C(F)(F)F)[C@H]1O` (racemic) [Example 15, cis-5-Hydroxy-4-(trifluoromethyl)-3-{1-[4-(trifluoromethyl)-1,3-thiazol-2-yl]piperidin-4-yl}-1,4,5,7-tetrahydro-6H-pyrazolo[3,4-b]pyridin-6-one], for which the half-maximal effective concentration (EC50) came out at 290 nM.

As to `O=C1Nc2[nH]nc(C3CCN(c4ccc(C(F)(F)F)nn4)CC3)c2[C@@H](C(F)(F)F)[C@@H]1O` (racemic) [Example 6, trans-5-Hydroxy-4-(trifluoromethyl)-3-{1-[6-(trifluoromethyl)pyridazin-3-yl]piperidin-4-yl}-1,4,5,7-tetrahydro-6H-pyrazolo[3,4-b]pyridin-6-one], the EC50 turned out to be 2220 nM.

For the molecule `O=C1Nc2[nH]nc(C3CCN(c4ccc(C(F)(F)F)cn4)CC3)c2[C@@H](C(F)(F)F)[C@H]1O` (racemic) [Example 2, cis-5-Hydroxy-4-(trifluoromethyl)-3-{1-[5-(trifluoromethyl)pyridin-2-yl]piperidin-4-yl}-1,4,5,7-tetrahydro-6H-pyrazolo[3,4-b]pyridin-6-one], the concentration for a half-maximal effect (EC50) amounted to 40 nM.

In the case of `CC(C)Oc1ccc(N2CCC(c3n[nH]c4c3[C@@H](C(F)(F)F)[C@@H](O)C(=O)N4)CC2)cn1` (single isomer, unassigned) [Example 39, cis-5-hydroxy-3-[1-(6-isopropoxypyridin-3-yl)piperidin-4-yl]-4-(trifluoromethyl)-1,4,5,7-tetrahydro-6H-pyrazolo[3,4-b]pyridin-6-one], the 50% effective concentration (EC50) is 92 nM.

With `O=C1Nc2[nH]nc(C3CCN(c4ccc(C(F)(F)F)nn4)CC3)c2[C@@H](C(F)(F)F)[C@H]1O` (racemic) [Example 7, cis-5-Hydroxy-4-(trifluoromethyl)-3-{1-[6-(trifluoromethyl)pyridazin-3-yl]piperidin-4-yl}-1,4,5,7-tetrahydro-6H-pyrazolo[3,4-b]pyridin-6-one], the half-maximal effective concentration (EC50) came to 110 nM.

Turning to `CC(C)c1nc(N2CCC(c3n[nH]c4c3[C@@H](C(F)(F)F)[C@@H](O)C(=O)N4)CC2)cc(C(F)(F)F)n1` (racemic) [Example 9, cis-5-Hydroxy-3-{1-[2-isopropyl-6-(trifluoromethyl)pyrimidin-4-yl]piperidin-4-yl}-4-(trifluoromethyl)-1,4,5,7-tetrahydro-6H-pyrazolo[3,4-b]pyridin-6-one], the half-maximal effective concentration (EC50) amounted to 27 nM.

As for `O=C1Nc2[nH]nc(C3CCN(c4ccc(C(F)(F)F)cn4)CC3)c2C(O)(C(F)(F)F)C1O` (centres unmarked) [Example 4, 4,5-Dihydroxy-4-(trifluoromethyl)-3-{1-[5-(trifluoromethyl)pyridin-2-yl]piperidin-4-yl}-1,4,5,7-tetrahydro-6H-pyrazolo[3,4-b]pyridin-6-one], the EC50 worked out at 22 nM.
